Patent publication US20170216235A1, “ADMINISTRATION OF ADAPALENE AND BENZOYL PEROXIDE FOR THE LONG-TERM TREATMENT OF ACNE VULGARIS” (GALDERMA RESEARCH & DEVELOPMENT, priority 2007, published 2017)
Where two headings read alike, the source gives them in different places.

Key:
[1] = Retinoid degradation in the presence of BPO; format: physicochemical
Experimental: Another technical problem to be solved for the formulation of a composition comprising both adapalene and BPO is the chemical and physical compatibility of these compounds within the same formulation provided that common retinoids are natural oxidization sensitive, visible light and ultra violet sensitive and BPO being a strong oxidizing agent.
Indeed, BPO triggers rapidly degradation of natural oxidization sensitive retinoids: 50% of tretinoine is degraded within 2 hours and 95% is degraded within 24 hours.

[2] = 40° C., cited from earlier work

## COc1ccc(-c2ccc3cc(C(=O)O)ccc3c2)cc1C12CC3CC(CC(C3)C1)C2 [adapalene, 6-[3-(1-adamantyl)-4-methoxyphenyl]-2-naphthoic acid]
[1]; within 24 hours
  adapalene degradation in the composition with BPO: no adapalene degradation

## CC1=C(/C=C/C(C)=C/C=C/C(C)=C/C(=O)O)C(C)(C)CCC1 [tretinoine]
[1]; within 2 hours
  retinoid degraded in the presence of BPO: 50%
[1]; within 24 hours
  retinoid degraded in the presence of BPO: 95%

## O=C(OOC(=O)c1ccccc1)c1ccccc1 [BPO, benzoyl peroxide]
[2]; in PEG 400 (0.5 mg/g)
  BPO degradation time: 14 days
[2]; in ethanol
  BPO degradation time: 29 days
[2]; in propylene glycol
  BPO degradation time: 53 days
